{
  "source": "patent US20050250837A1",
  "about": "“Use of C-Raf inhibitors for the treatment of neurodegenerative diseases” (priority 2002, published 2005)",
  "key": {"[1]": {"test_system": "cerebellar granule neurons", "assay": "Apoptosis of neurons infected with adenoviral dominant-negative Akt", "type": "cell-based, rat", "details": "LK + 1 uM GW5074 or 25 ng/ml IGF-1", "source_text": "Five day old neuronal cultures were infected with adenoviral vectors expressing either GFP or hemagluttinin (HA)-tagged dominant-negative Akt. […] Infected neurons were detected by positive staining for GFP or HA by immunocytochemistry. The proportion of apoptotic cells (condensed or fragmented nuclei) as a percentage of total infected neurons was quantified following DAPI-staining.\nDnAkt and control recombinant adenovirus expressing green fluorescent protein (Ad-GFP) are propagated in HEK293T cells and purified by cesium chloride density gradient centrifugation. After quantification of titer, virus at an MOI of 10 are used to infect granule neuron cultures 5 days after plating by direct addition to the medium. Treatments are performed 24 hours after addition of virus."}, "[2]": {"biological_target": "cdk2 (Homo sapiens, UniProt P24941)", "details": "Lackey et al., 2000; cited from earlier work"}, "[3]": {"test_system": "cerebellar granule neurons", "assay": "MPP+-induced cell death in cerebellar granule neurons", "type": "cell-based, rat", "details": "HK + 200 uM MPP+, different concentrations of GW5074, 24 hours"}, "[4]": {"biological_target": "c-fms (Homo sapiens, UniProt P07333)", "sequence (P07333 20-972)": "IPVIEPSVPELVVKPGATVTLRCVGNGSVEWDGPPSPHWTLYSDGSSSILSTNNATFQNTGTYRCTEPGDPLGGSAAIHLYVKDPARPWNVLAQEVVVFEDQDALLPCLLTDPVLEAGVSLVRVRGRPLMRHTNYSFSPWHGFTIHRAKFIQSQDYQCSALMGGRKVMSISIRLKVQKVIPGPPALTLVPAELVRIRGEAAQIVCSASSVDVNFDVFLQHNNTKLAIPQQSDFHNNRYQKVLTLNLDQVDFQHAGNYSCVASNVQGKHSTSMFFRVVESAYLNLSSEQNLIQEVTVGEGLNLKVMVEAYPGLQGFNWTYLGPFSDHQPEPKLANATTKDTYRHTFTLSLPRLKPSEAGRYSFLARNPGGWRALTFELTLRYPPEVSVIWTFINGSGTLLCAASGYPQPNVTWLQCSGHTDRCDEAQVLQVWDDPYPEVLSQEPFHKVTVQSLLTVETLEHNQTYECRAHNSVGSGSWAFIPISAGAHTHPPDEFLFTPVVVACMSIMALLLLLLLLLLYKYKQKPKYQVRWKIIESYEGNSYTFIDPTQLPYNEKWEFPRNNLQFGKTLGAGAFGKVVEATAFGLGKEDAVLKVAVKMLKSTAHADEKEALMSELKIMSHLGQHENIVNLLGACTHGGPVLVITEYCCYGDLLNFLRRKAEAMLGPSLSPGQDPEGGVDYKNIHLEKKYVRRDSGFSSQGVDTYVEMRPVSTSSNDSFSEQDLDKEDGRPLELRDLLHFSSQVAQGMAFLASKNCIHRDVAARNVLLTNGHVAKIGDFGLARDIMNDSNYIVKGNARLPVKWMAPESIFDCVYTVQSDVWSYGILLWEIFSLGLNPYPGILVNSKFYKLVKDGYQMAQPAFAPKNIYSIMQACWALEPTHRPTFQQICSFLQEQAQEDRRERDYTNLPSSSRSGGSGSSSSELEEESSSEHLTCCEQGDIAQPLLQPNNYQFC", "details": "Lackey et al., 2000; cited from earlier work"}, "[5]": {"test_system": "mice", "assay": "3-Nitropropionic acid (3-NP) model of Huntington's disease, striatal lesions", "type": "in vivo", "details": "GW5074 5 mg/kg body weight intraperitoneally", "source_text": "3-Nitropropionic acid (3-NP) administration in rodents and nonhuman primates has served as a useful experimental model for HD (reviewed in Brouillet et al., 1999). 3-NP is an irreversible inhibitor of succinate dehydrogenase (SDH; Complex II), which causes prolonged mitochondrial energy impairment and replicates most of the clinical and pathophysiological hallmarks of HD including selective striatal degeneration, spontaneous choreiform and dystonic movements (Brouillet et al., 1999).\nMice were purchased from Charles River (Wilmington, Mass.). 3-NP was dissolved in water and the solution brought to pH 7.4 with sodium hydroxide. 3NP was administered to 8-week old B6CBA male mice in ten intraperitoneal injections (50 mg/kg twice a day for 5 days). […] Control animals received saline injections. On the day following the 5 days of injection, mice were deeply anesthetized, intracardially perfused, brains removed, post fixed in 4% paraformaldehyde and cryoprotected. Coronal sections were cut on a cryostat at 50 micron and stained for Nissl substance (cresyl violet)."}, "[6]": {"biological_target": "C-Raf (Homo sapiens, UniProt P04049)", "sequence (P04049 whole entry, species assumed)": "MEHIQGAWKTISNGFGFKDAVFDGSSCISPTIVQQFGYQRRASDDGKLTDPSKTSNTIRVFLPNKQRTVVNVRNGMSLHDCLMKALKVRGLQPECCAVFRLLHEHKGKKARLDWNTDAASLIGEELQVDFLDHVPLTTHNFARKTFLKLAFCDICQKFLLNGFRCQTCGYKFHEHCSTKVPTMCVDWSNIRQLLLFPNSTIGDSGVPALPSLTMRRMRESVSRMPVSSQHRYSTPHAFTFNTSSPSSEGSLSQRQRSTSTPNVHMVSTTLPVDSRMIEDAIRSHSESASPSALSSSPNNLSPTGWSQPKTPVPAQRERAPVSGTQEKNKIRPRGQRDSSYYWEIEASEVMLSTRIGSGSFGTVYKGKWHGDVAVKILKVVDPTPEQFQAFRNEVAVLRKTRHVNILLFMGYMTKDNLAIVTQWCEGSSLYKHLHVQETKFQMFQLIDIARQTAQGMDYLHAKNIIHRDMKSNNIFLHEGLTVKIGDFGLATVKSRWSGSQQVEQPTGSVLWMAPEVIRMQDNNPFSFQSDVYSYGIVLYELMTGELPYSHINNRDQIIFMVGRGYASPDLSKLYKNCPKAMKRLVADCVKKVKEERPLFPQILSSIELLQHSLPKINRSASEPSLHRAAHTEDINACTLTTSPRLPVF", "assay": "In vitro kinase assay, purified kinase (Upstate Kinase Profiling)", "type": "biochemical", "experimental": "In general, in vitro kinase assays were performed using purified kinase and synthetic substrates under standard conditions using the Kinase Profiling service of Upstate Biotechnology. Briefly, for each assay 5-10 mU of purified kinase was used. […] Kinase activity was quantified by measuring ^33P incorporation by spotting an aliquot on P30 filters, washing in 50 mM phosphoric acid and scintillation counting. The buffer composition for C-Raf, JNK1, JNK2, JNK3, MEK1, MKK6, MKK7 was 50 mM Tris pH7.5, 0.1 mM EGTA, 10 mM Mg acetate and [γ-^33P-ATP]. The peptide substrates used were as follows: For C-Raf, 0.66 mg/ml MBP; for cdks, 0.1 mg/ml histone H1; for JNKs, 3 uM ATF2; for MEK1, 1 uM MAPK2; for MKK6, 1 uM of SAPK2a and for MKK7, 2 uM JNK1α."}, "[7]": {"test_system": "GSK3β", "assay": "GSK3β phosphorylation in neuronal cultures, Western blot", "type": "cell-based, rat", "details": "LK + 1 uM GW5074"}, "[8]": {"biological_target": "T1, C-Raf (Rattus norvegicus, UniProt P11345)", "T1 construct": "Activities of endogenous C-Raf and B-Raf activity was assayed by measuring the ability of kinase immunoprecipitated from neuronal lysates; endogenous in cells; host or cells: primary rat cerebellar granule neurons", "assay": "Activity of C-Raf immunoprecipitated from neuronal lysates, GST-MEK substrate, phospho-MEK Western", "type": "cell-based", "protocol": "The immunoprecipitated C-Raf was used in in vitro kinase assays using GST-MEK as substrate and the reaction products subjected to Western analysis. Phosphorylation of MEK was detected using a phospho-MEK antibody. […] After 1 hour of treatment, the cultures were lysed, C-Raf immunoprecipitated from the lysate and used in an in vitro kinase assay with MEK as substrate. The reaction mixture was subjected to Western analysis using a phospho-MEK antibody as probe.\n(Hall-Jackson et al., 1999). […] Lysates from the cultures were used in a kinase reaction with MEK as substrate. […] Phosphorylation of MEK was detected by Western blot analysis using an phospho-MEK antibody and the same blot was reprobed with a C-Raf antibody.\nAfter treatment, cultures of 7-8-day old neurons were washed twice with ice-cold PBS and lysed in ice cold lysis buffer. The lysates were centrifuged for 10 min at 10,000 rpm at 4° C. Protein concentrations of the supernatant were measured using a Bradford protein assay kit (Bio-Rad), and equivalent amounts of protein were incubated overnight with primary antibody (1.0-2 ug) and then for 2 h with 20 ul Protein A/G PLUS-Agarose (Santa Cruz Biotech.) Immunoprecipitates were collected by centrifugation at 2,500 rpm for 5 min at 4° C. and washed three times with lysis buffer, and pellets resuspended in electrophoresis sample buffer (187.5 mM Tris-HCl (pH 6.8 at 25° C.), 6% SDS, 30% glycerol, 150 mM DTT, 0.03% bromophenol blue), boiled for 4 min and subjected to SDS-polyacrylamide gel electrophoresis.\nActivities of endogenous C-Raf and B-Raf activity was assayed by measuring the ability of kinase immunoprecipitated from neuronal lysates to phosphorylate a kinase-dead recombinant GST-MEK1 substrate. Following immunoprecipitation and multiple washes with lysis buffer, lysis buffer supplemented with 350 mM NaCl, and kinase buffer (25 mM HEPES pH 7.4 and 10 mM MgCl2), in vitro kinase assays are performed on the immune complexes using purified recombinant GST-MEK1 K97M protein as a substrate in kinase buffer supplemented with 85 μM ATP for 35 minutes at 30° C. Reactions are stopped by the addition of 3×SDS sample buffer and boiled for five minutes. Proteins are resolved by SDS-PAGE and subjected to Western blotting. The level of phosphorylated MEK is detected by a phospho-MEK antibody."}, "[9]": {"biological_target": "p38 MAP kinase (Homo sapiens, UniProt Q16539)", "sequence (Q16539 whole entry)": "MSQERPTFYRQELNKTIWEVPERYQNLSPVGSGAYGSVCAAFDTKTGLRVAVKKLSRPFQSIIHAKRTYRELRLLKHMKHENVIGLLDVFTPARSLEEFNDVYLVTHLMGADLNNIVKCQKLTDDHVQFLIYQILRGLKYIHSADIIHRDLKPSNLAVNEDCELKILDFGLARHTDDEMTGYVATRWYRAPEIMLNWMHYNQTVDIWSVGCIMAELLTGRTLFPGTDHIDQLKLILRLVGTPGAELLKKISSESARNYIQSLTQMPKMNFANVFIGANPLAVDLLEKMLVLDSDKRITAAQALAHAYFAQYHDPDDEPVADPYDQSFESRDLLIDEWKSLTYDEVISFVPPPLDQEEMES", "details": "Lackey et al., 2000; cited from earlier work"}, "[10]": {"test_system": "cerebellar granule neurons", "assay": "Methylmercury-induced cell death in cerebellar granule neurons", "type": "cell-based, rat", "details": "HK + 0.5 uM methylmercury, different concentrations of GW5074, 24 hours"}},
  "data": [
    {"compound": "O=C1Nc2ccc(I)cc2C1=Cc1cc(Br)c(O)c(Br)c1", "note": "[GW5074, 5-Iodo-3-[(3,5-dibromo-4-hydroxyphenyl)methylene]-2-indolinone]", "values": [
      {"measurement": "effect of dominant-negative Akt on survival promotion", "setting": "[1]", "result": "no effect on the ability of GW5074 to maintain neuronal survival"},
      {"measurement": "effect on activity of cdk2", "setting": "[2]", "result": "no effect"},
      {"measurement": "MPP+-induced cell death", "setting": "[3]", "result": "reduced MPP^+-induced cell death"},
      {"measurement": "effect on activity of c-fms", "setting": "[4]", "result": "no effect"},
      {"measurement": "3-NP-induced striatal degeneration", "setting": "[5]", "result": "completely prevented"},
      {"measurement": "activity at 1 µM", "setting": "[6]", "result": 3, "unit": "%"},
      {"measurement": "activation of GSK3β after switch to LK", "setting": "[7]", "result": "prevents the activation of GSK3"},
      {"measurement": "concentration inhibiting immunoprecipitated C-Raf when added in vitro", "setting": "[8]; GW5074 added to the immunoprecipitated enzyme in the kinase reaction", "result": "lower than 1 uM"},
      {"measurement": "activity of C-Raf immunoprecipitated from treated cultures", "setting": "[8]; LK + GW5074 0.25-5 uM, 1 hour", "result": "marked induction"},
      {"measurement": "effect on activity of p38 MAP kinase", "setting": "[9]", "result": "no effect"},
      {"measurement": "methylmercury-induced cell death", "setting": "[10]", "result": "reduced methylmercury-induced cell death"}
    ]}
  ]
}
